The subject of one data set is VGE62. In words: MTT cell metabolic activity assay, VGE62. Format: cell-based, human. As to conditions: VGE62, 48 h, 0.391-100 μM; effect at higher micromolar concentrations. The protocol: (§1) Cells were harvested and seeded in 96-flat well plates (Corning) at a density of 5 x 10^4 cells/mL overnight. Media was removed and 100 μL media with GW6471 or GW9662 at indicated concentrations was added to each well. Cell viability and toxicity were measured at 48 h. Cells were incubated with 50 μL of a 2 mg/mL solution of (3-(4,5-dimethyl-thiazole-2-yl)-2,5-[…] tetrazolium (MTT, Sigma-Aldrich) in PBS for 4 h and then exposed to 100 μL dimethyl sulfoxide (DMSO; Sigma-Aldrich). Cell viability was measured by absorption at 570 nm in a microplate spectrophotometer (Spectromax 250 plate reader). Results are shown as relative cell viability.

A short description of data set [1]: In vitro metabolic stability in mouse liver microsomes. Format: in vitro ADME. The protocol: The test compound (1 μM) was incubated at 37°C with mouse liver microsomes (XenoTech) at a protein concentration of 0.4 mg/mL. The metabolic reaction was initiated by the addition of a NADPH-regenerating system and quenched at various time points over a 60 min incubation period by the addition of acetonitrile. Control samples (without NADPH) were included (and quenched at 2, 30, 60 min) to monitor for potential degradation in the absence of cofactor. The degradation half-life and in vitro intrinsic clearance (in vitro CLint) in microsomes were calculated using the apparent first order degradation rate constant for substrate depletion ([Obach, 1999]).
Compound quantification was performed using a Xevo G2 QTOF (in vitro metabolic stability) using positive electrospray ionisation under MS^E mode or a Waters Xevo TQD (mouse exposure) mass spectrometer using positive electrospray ionisation multiple-reaction monitoring mode. Compounds were eluted using an acetonitrile-water/0.05% formic acid gradient at a flow rate of 0.4 mL/min operating over a 4 min cycle on a Waters Acquity UPLC using a Supelco Ascentis Express RP C8 column (50 × 2.1 mm, 2.7 μm). Extraction was performed by precipitation using acetonitrile (1:1 volume ratio for microsomes and 2:1 volume ratio for plasma samples) followed by centrifugation. Compound concentrations were quantified against calibration standards prepared in an appropriate matrix to match the test samples (e.g. plasma or microsomes).
In general terms: Liver microsomes are vesicles of endoplasmic reticulum, rich in cytochrome P450 enzymes.

The test system of the next data set is AB1-Luc. In words: Intraperitoneal AB1-Luc mesothelioma model, bioluminescence and histology. Format: in vivo, BALB/c mice. As to conditions: for Tumor growth (bioluminescence, average radiance): versus controls. The protocol:
Cells were trypsinized and washed two times in phosphate buffer saline (PBS) and counted with trypan blue dye. For the SC tumour model, mice were shaved on the right-hand flank and inoculated with 5x10^5 AB1 or 1x10^6 AE17 cells suspended in 100 μL PBS. Tumour volume (mm^3) was monitored with callipers. For the IPL tumour model, mice were anaesthetised under continuous isofluorane and inoculated with 5 x 10^5 AB1 or 1 x 10^6 AE17 cells suspended in 200 μL PBS into the pleural space as previously described ([Lansley et al., 2015]) Tumour size was determined by weighting together the tumour with the lungs minus the weight of aged matched healthy lungs. For the IP tumour model, mice where inoculated in the intraperitoneal cavity on the right flank with 5x10^5 AB1-Luc cells suspended in 200 μL PBS. Tumour size was determined by in vivo imaging system (IVIS), see below. All mice were euthanized in accordance with animal ethics guidelines.
Female BALB/cJAusb mice (10–12 weeks) were inoculated IP with 5 x 10^5 AB1-Luc on their right flank. Mice were randomly allocated to the different groups on the first treatment day. Treatment with ABT + GW6471 or GW6471 alone started on day 4 after tumour inoculation. IP Injections and concentrations were used as previously described in the “Mouse pharmacokinetic studies” section in experimental model and subject details. Initial mouse weight was measured immediately before the first injection, and it was used to calculate weight change daily. Mice were dosed for a maximum of seven consecutive days. In vivo imaging system (IVIS) (see below) was performed on days 3 (before treatment), 7 (during treatment) and 11 (after treatment). Mice were euthanized on day 11 in accordance with animal ethics guidelines and organs were harvested for staining.
XenoLight D-Luciferin potassium salt (PerkinElmer, VIC, Australia) was used at a 150 mg/kg concentration dissolved in sterile PBS. Approximately 150 μL (15 mg/mL concentration) was injected subcutaneously per mouse. […]

The next data set relates to renal cell carcinoma. More on the design: method as in Abu Aboud et al., 2015. As to conditions: 20 mg/kg; ref Abu Aboud et al., 2015; cited from earlier work.
The next data set relates to AB1. In words: MTT cell metabolic activity assay, AB1. As to conditions: AB1, 48 h, 0.391-100 μM; effect at higher micromolar concentrations. Format: cell-based, mouse. The protocol: as §1
The next data set deals with AE17. In words: MTT cell metabolic activity assay, AE17. Format: cell-based, mouse. As to conditions: AE17, 48 h, 0.391-100 μM; effect at higher micromolar concentrations. The protocol: as §1
The target in a further data set is T1, PPARδ (Homo sapiens, UniProt Q03181).
T1 construct: expressed in transfected cells; host or cells: HG5LN (HeLa-derived, GAL4RE-luciferase)
T1 sequence (Q03181 211-439 limits assumed): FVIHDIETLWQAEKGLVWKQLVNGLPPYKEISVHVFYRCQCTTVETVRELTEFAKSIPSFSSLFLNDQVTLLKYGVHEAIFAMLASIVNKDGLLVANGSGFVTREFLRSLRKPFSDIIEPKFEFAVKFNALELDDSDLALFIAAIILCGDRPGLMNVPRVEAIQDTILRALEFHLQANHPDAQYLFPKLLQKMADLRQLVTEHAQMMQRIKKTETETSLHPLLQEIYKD
In words: HG5LN reporter cell assay, PPARδ. As to conditions: HG5LN PPARδ reporter cells. The data set is classed as cell-based.

Results on 1 molecule are retold here after PMC8692993, “PPARα and PPARγ activation is associated with pleural mesothelioma invasion but therapeutic inhibition is ineffective” (iScience, 2021).

As for `CCC(=O)NC[C@H](Cc1ccc(OCCc2nc(-c3ccccc3)oc2C)cc1)N/C(C)=C\C(=O)c1ccc(C(F)(F)F)cc1` [GW6471], the “Cell viability (MTT)” value in the data set with VGE62, with AB1 and with AE17 was “lowered viability” each time. Besides, the “In vitro CLint” value in data set [1] (NADPH-activated mouse liver microsomes) came out at 556 μL/min/mg protein. In data set [1] (NADPH-activated mouse liver microsomes, 1 μM, 0.4 mg/mL protein), the Degradation half-life was 3 min. In data set [1] (mouse liver microsomes without NADPH), the “Stability in the absence of NADPH” value is recorded as “stable”. The “Tumor growth (bioluminescence, average radiance)” value in the data set on AB1-Luc (GW6471 10 mg/kg IP daily from day 4, with ABT 50 mg/kg pre-treatment (ABT + GW6471)) is listed as “no significant effect on tumor growth”; in the data set on AB1-Luc (GW6471 10 mg/kg IP daily from day 4, without ABT), “no significant effect on tumor growth”. Besides, in the data set with AB1-Luc (GW6471 with or without ABT, all mice showed invasion into intestine and pancreas), the “Mesothelioma invasion and proliferation in vivo (histology)” value is “no impact on mesothelioma invasion and proliferation in vivo”. Besides, the “Tumor reduction in vivo” value with renal cell carcinoma was “significant tumor reduction”. Further, on PPARδ, the “Effect on PPARδ in reporter cell assay” value is listed as “no effect”.
